± gives the expanded uncertainty stated by the source.
Experiment: molar heat capacity at constant pressure
Details: Liquid

| Compound | molar heat capacity at constant pressure (303.15 K, 101 kPa) [J/K/mol] | molar heat capacity at constant pressure (308.15 K, 101 kPa) [J/K/mol] | molar heat capacity at constant pressure (313.15 K, 101 kPa) [J/K/mol] | molar heat capacity at constant pressure (318.15 K, 101 kPa) [J/K/mol] | molar heat capacity at constant pressure (323.15 K, 101 kPa) [J/K/mol] | molar heat capacity at constant pressure (328.15 K, 101 kPa) [J/K/mol] | molar heat capacity at constant pressure (333.15 K, 101 kPa) [J/K/mol] | molar heat capacity at constant pressure (338.15 K, 101 kPa) [J/K/mol] | molar heat capacity at constant pressure (343.15 K, 101 kPa) [J/K/mol] | molar heat capacity at constant pressure (348.15 K, 101 kPa) [J/K/mol] | molar heat capacity at constant pressure (353.15 K, 101 kPa) [J/K/mol] | further results |
| --- | --- | --- | --- | --- | --- | --- | --- | --- | --- | --- | --- | --- |
| CC(O)CN (configuration not stated) [1-amino-2-propanol] | 209 ± 2 | 213 ± 2 | 214 ± 2 | 215 ± 2 | 217 ± 2 | 218 ± 2 | 221 ± 2 | 223 ± 2 | 225 ± 2 | 228 ± 2 | 230 ± 2 |  |
| CN(C)CCO [2-(N,N-dimethylamino)ethanol] | 213 ± 2 | 215 ± 2 | 217 ± 2 | 219 ± 2 | 221 ± 2 | 222 ± 2 | 223 ± 2 | 223 ± 2 | 223 ± 2 | 224 ± 2 | 226 ± 2 |  |
| CNCCO [2-(methylamino)ethanol] | 194 ± 2 | 199 ± 2 | 200 ± 2 | 202 ± 2 | 203 ± 2 | 205 ± 2 | 206 ± 2 | 207 ± 2 | 208 ± 2 | 210 ± 2 | 212 ± 2 |  |
| NCCO [2-aminoethan-1-ol] |  |  |  |  |  |  |  |  |  |  |  | molar heat capacity at constant pressure (303.15 K, 101.33 kPa): 168 ± 1 J/K/mol; molar heat capacity at constant pressure (308.15 K, 101.33 kPa): 169 ± 1 J/K/mol; molar heat capacity at constant pressure (313.15 K, 101.33 kPa): 169 ± 1 J/K/mol; molar heat capacity at constant pressure (318.15 K, 101.33 kPa): 171 ± 2 J/K/mol; molar heat capacity at constant pressure (323.15 K, 101.33 kPa): 173 ± 2 J/K/mol; molar heat capacity at constant pressure (328.15 K, 101.33 kPa): 174 ± 2 J/K/mol; molar heat capacity at constant pressure (333.15 K, 101.33 kPa): 175 ± 2 J/K/mol; molar heat capacity at constant pressure (338.15 K, 101.33 kPa): 178 ± 2 J/K/mol; molar heat capacity at constant pressure (343.15 K, 101.33 kPa): 179 ± 2 J/K/mol; molar heat capacity at constant pressure (348.15 K, 101.33 kPa): 180 ± 2 J/K/mol; molar heat capacity at constant pressure (353.15 K, 101.33 kPa): 182 ± 2 J/K/mol |
| NCCCO [3-amino-1-propanol] | 204 ± 2 | 207 ± 2 | 208 ± 2 | 208 ± 2 | 209 ± 2 | 210 ± 2 | 211 ± 2 | 213 ± 2 | 214 ± 2 | 216 ± 2 | 217 ± 2 |  |
| NCCNCCO [N-(2-aminoethyl)ethanolamine] | 279 ± 2 | 284 ± 2 | 285 ± 2 | 286 ± 2 | 287 ± 2 | 289 ± 2 | 290 ± 2 | 292 ± 2 | 293 ± 2 | 295 ± 2 | 296 ± 2 |  |
| CN(CCO)CCO [N-methyldiethanolamine] |  |  |  |  |  |  |  |  |  |  |  | molar heat capacity at constant pressure (303.15 K, 101.33 kPa): 273 ± 2 J/K/mol; molar heat capacity at constant pressure (308.15 K, 101.33 kPa): 276 ± 2 J/K/mol; molar heat capacity at constant pressure (313.15 K, 101.33 kPa): 279 ± 2 J/K/mol; molar heat capacity at constant pressure (318.15 K, 101.33 kPa): 282 ± 2 J/K/mol; molar heat capacity at constant pressure (323.15 K, 101.33 kPa): 285 ± 2 J/K/mol; molar heat capacity at constant pressure (328.15 K, 101.33 kPa): 288 ± 2 J/K/mol; molar heat capacity at constant pressure (333.15 K, 101.33 kPa): 290 ± 2 J/K/mol; molar heat capacity at constant pressure (338.15 K, 101.33 kPa): 294 ± 2 J/K/mol; molar heat capacity at constant pressure (343.15 K, 101.33 kPa): 298 ± 2 J/K/mol; molar heat capacity at constant pressure (348.15 K, 101.33 kPa): 301 ± 3 J/K/mol; molar heat capacity at constant pressure (353.15 K, 101.33 kPa): 304 ± 3 J/K/mol |
